Data: EP2684879A1, “Substituted mesoionic compounds for combating animal pests” (priority 2012, dated 2014)

Assays:
Type in all cases: in vivo
[1] = test system: Mediterranean fruitfly (Ceratitis capitata); assay: Mediterranean fruitfly control, insect diet in microtiter plates; conditions: 120 h, test concentration of 1415 ppm, egg and larval mortality visually assessed after 5 days
Method: (§1) For evaluating control of Mediterranean fruitfly (Ceratitis capitata) the test unit consisted of microtiter plates containing an insect diet and 50-80 C. capitata eggs. The compounds were formulated using a solution containing 75% v/v water and 25% v/v DMSO. Different concentrations of formulated compounds were sprayed onto the insect diet at 5 µl, using a custom built micro atomizer, at two replications. After application, microtiter plates were incubated at about 28 ± 1°C and about 80 ± 5 % relative humidity for 5 days. Egg and larval mortality was then visually assessed.

[2] = test system: Southern Armyworm (Spodoptera eridania, 2nd instar larvae); assay: Southern armyworm, sprayed lima bean plants; conditions: 96 h, test concentration of 500 ppm, 4 days after treatment, in comparison with untreated controls
Method: The active compounds were formulated in cyclohexanone as a 10, 0000 ppm solution supplied in 1.3 ml ABgene® tubes. These tubes were inserted into an automated electrostatic sprayer equipped with an atomizing nozzle and they served as stock solutions for which lower dilutions were made in 50% acetone: 50% water (v/v). A nonionic surfactant (Kinetic®) was included in the solution at a volume of 0.01% (v/v). Lima bean plants (variety Sieva) were grown 2 plants to a pot and selected for treatment at the 1st true leaf stage. Test solutions were sprayed onto the foliage by an automated electrostatic plant sprayer equipped with an atomizing spray nozzle. The plants were dried in the sprayer fume hood and then removed from the sprayer. Each pot was placed into perforated plastic bags with a zip closure. Ten to 11 armyworm larvae were placed into the bag and the bags zipped closed. Test plants were maintained in a growth room at 25°C and 20-40% relative humidity for 4 days, avoiding direct exposure to fluorescent light (24 hour photoperiod) to prevent trapping of heat inside the bags. Mortality and reduced feeding were assessed 4 days after treatment, compared to untreated control plants.

[3] = test system: tobacco budworm (Heliothis virescens); assay: Tobacco budworm control, insect diet in 96-well microtiter plates; conditions: 120 h
Method: as §1, with “of tobacco budworm (Heliothis virescens)” for “of Mediterranean fruitfly (Ceratitis capitata)”, “unit consists” for “unit consisted”, “of 96-well-microtiter” for “of microtiter”, “and 15-25 H. virescens” for “and 50-80 C. capitata”, “at 10” for “at 5”

[4] = test system: Orchid thrips (Dichromothrips corbetti); assay: Orchid thrips, floral-immersion technique; conditions: 96 h, test concentration of 100 ppm, after 4 days, in comparison with untreated controls
Method: Dichromothrips corbetti adults used for bioassay were obtained from a colony maintained continuously under laboratory conditions. For testing purposes, the test compound was diluted to a concentration of 300 ppm (wt compound: vol diluent) in a 1:1 mixture of acetone:water (vol:vol), plus 0.01 % vol/vol Kinetic® surfactant. Thrips potency of each compound was evaluated by using a floral-immersion technique. Plastic petri dishes were used as test arenas. All petals of individual, intact orchid flowers were dipped into treatment solution and allowed to dry. Treated flowers were placed into individual petri dishes along with 10 - 15 adult thrips. The petri dishes were then covered with lids. All test arenas were held under continuous light and a temperature of about 28°C for duration of the assay. After 4 days, the numbers of live thrips were counted on each flower, and along inner walls of each petri dish. The level of thrips mortality was extrapolated from pre-treatment thrips numbers.

[5] = test system: Green Peach Aphid (Myzus persicae, mixed life stages); assay: Green peach aphid, sprayed infested bell pepper plants; conditions: 120 h, test concentration of 1415 ppm, after 5 days, relative to mortality on untreated control plants
Description: The active compounds were formulated in cyclohexanone as a 10,000 ppm solution supplied in tubes. The tubes were inserted into an automated electrostatic sprayer equipped with an atomizing nozzle and they served as stock solutions for which lower dilutions were made in 50% acetone:50% water (v/v). A nonionic surfactant (Kinetic®) was included in the solution at a volume of 0.01 % (v/v). Bell pepper plants at the first true-leaf stage were infested prior to treatment by placing heavily infested leaves from the main colony on top of the treatment plants. Aphids were allowed to transfer overnight to accomplish an infestation of 30-50 aphids per plant and the host leaves were removed. The infested plants were then sprayed by an automated electrostatic plant sprayer equipped with an atomizing spray nozzle. The plants were dried in the sprayer fume hood, removed, and then maintained in a growth room under fluorescent lighting in a 24-hr photoperiod at about 25°C and about 20-40% relative humidity. Aphid mortality on the treated plants, relative to mortality on untreated control plants, was determined after 5 days.

[6] = test system: boll weevil (Anthonomus grandis); assay: Boll weevil control, insect diet in 24-well microtiter plates; conditions: 120 h, test concentration of 1415 ppm, egg and larval mortality visually assessed after 5 days
Method: For evaluating control of boll weevil (Anthonomus grandis) the test unit consists of 24-well-microtiter plates containing an insect diet and 20-30 A. grandis eggs. The compounds were formulated using a solution containing 75% v/v water and 25% v/v DMSO. Different concentrations of formulated compounds were sprayed onto the insect diet at 20 µl, using a custom built micro atomizer, at two replications. After application, microtiter plates were incubated at about 23 ± 1°C and about 50 ± 5 % relative humidity for 5 days. Egg and larval mortality was then visually assessed.

[7] = test system: vetch aphid (Megoura viciae); assay: Vetch aphid control, broad bean leaf disks, contact or systemic; conditions: foliar, 120 h, test concentration of 1415 ppm, aphid mortality visually assessed after 5 days
[8] = test system: Rice brown plant hopper (Nilaparvata lugens); assay: Rice brown plant hopper, sprayed potted rice seedlings; conditions: test concentration of 500 ppm, after 72 hours, in comparison with untreated controls
Method: Rice seedlings were cleaned and washed 24 hours before spraying. The active compounds were formulated in 50:50 acetone:water (vol:vol) and 0.1 % vol/vol surfactant (EL 620) was added. Potted rice seedlings were sprayed with 5 ml test solution, air dried, placed in cages and inoculated with 10 adults. Treated rice plants were kept at about 28-29°C and relative humidity of about 50-60%. Percent mortality was recorded after 72 hours.

| Compound | mortality at 500 ppm [2] [%] | mortality at 1415 ppm [5] [%] | further results |
| --- | --- | --- | --- |
| CCS(CC)=NC(=O)c1ccc(-c2cccc(-c3c([O-])[n+](Cc4cnc(Cl)s4)c4c(C)cccn4c3=O)c2)cc1 [Compound C-1] | ≥ 75 | ≥ 75 | mortality at 1415 ppm [1]: ≥ 75%; mortality at 1415 ppm [3]: ≥ 75%; mortality at 100 ppm [4]: ≥ 75%; mortality at 1415 ppm [6]: ≥ 75% |
| CCS(CC)=NC(=O)c1cccc(-c2c([O-])[n+](Cc3ccc(Cl)nc3)c3ccccn3c2=O)c1 [Compound C-4, 1-[(6-chloro-3-pyridyl)methyl]-3-[3-[(diethyl-λ4-sulfanylidene)carbamoyl]phenyl]-4-oxo-pyrido[1,2-a]pyrimidin-1-ium-2-olate] | ≥ 75 |  |  |
| CC(C)S(=NC(=O)c1cccc(-c2c([O-])[n+](Cc3ccc(Cl)nc3)c3ccccn3c2=O)c1)C(C)C [Compound C-5] | ≥ 75 | ≥ 75 |  |
| CCS(=NC(=O)c1ccc(-c2cccc(-c3c([O-])[n+](Cc4ccc(Cl)nc4)c4ccccn4c3=O)c2)cc1)C1CC1 (centres unmarked) [Compound C-7] | ≥ 75 | ≥ 75 | mortality at 1415 ppm [7]: ≥ 75% |
| CC(C)S(=NC(=O)c1ccc(-c2cccc(-c3c([O-])[n+](Cc4ccc(Cl)nc4)c4ccccn4c3=O)c2)cc1)C(C)C [Compound C-8] | ≥ 75 | ≥ 75 |  |
| CCS(CC)=NC(=O)c1cccc(-c2cc(-c3c([O-])[n+](Cc4ccc(Cl)nc4)c4ccccn4c3=O)ccc2OC)c1 [Compound C-9] |  | ≥ 75 |  |
| CCS(CC)=NC(=O)c1cccc(-c2cc(-c3c([O-])[n+](Cc4cnc(Cl)s4)c4c(C)cccn4c3=O)ccc2Cl)c1 [Compound C-10] |  | ≥ 75 |  |
| CCS(CC)=NC(=O)c1cccc(-c2cccc(-c3c([O-])[n+](Cc4ccc(Cl)nc4)c4ccccn4c3=O)c2)c1 [Compound C-11] |  | ≥ 75 |  |
| CCS(=NC(=O)c1cccc(-c2cccc(-c3c([O-])[n+](Cc4ccc(Cl)nc4)c4ccccn4c3=O)c2)c1)C1CC1 (centres unmarked) [Compound C-12] |  | ≥ 75 |  |
| CC(C)S(=NC(=O)c1cccc(-c2cccc(-c3c([O-])[n+](Cc4ccc(Cl)nc4)c4ccccn4c3=O)c2)c1)C(C)C [Compound C-13] |  | ≥ 75 | mortality at 500 ppm [8]: ≥ 75% |
